Experimental data: the supplement of paper PMC10307832

Key:
Experiment in all cases: relative viability (nuclei count vs DMSO), 5 days (fraction); higher = more cells survive
[1] = compound: C1=CC=C2C(=C1)N=C(S2)C(C#N)C3=NC(=NC=C3)NCCC4=CN=CC=C4 + C[C@@H](Oc1cc(-c2cnn(C3CCNCC3)c2)cnc1N)c1c(Cl)ccc(F)c1Cl [Crizotinib] (partner 1 µM)
Method in brief: (§1)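 Relative viability equals treated-well nuclei counts divided by vehicle-well nuclei counts. Counts came from 4× images of lung cancer cell lines grown in 1536-well plates for 5 days after pin-tool dosing on the day after seeding. Dosing used one drug alone or a fixed anchor-drug dose plus five library-drug doses (not always all listed) in √10 steps, and values are medians of duplicate plates.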

[2] = compound: COc1cc(N2CCC(N3CCN(C)CC3)CC2)ccc1Nc1ncc(Cl)c(Nc2ccccc2S(=O)(=O)C(C)C)n1 [NVP-TAE684] + O=C(c1cc(Cc2n[nH]c(=O)c3ccccc23)ccc1F)N1CCN(C(=O)C2CC2)CC1 [Olaparib] (partner 8 µM)
Method in brief: as §1

[3] = compound: C#Cc1cccc(Nc2ncnc3cc(OC)c(OCCCCCCC(=O)NO)cc23)c1 [CUDC-101] + Cc1nc(NC(=O)N2CCC[C@H]2C(N)=O)sc1-c1ccnc(C(C)(C)C(F)(F)F)c1 [Alpelisib] (partner 2 µM)
Method in brief: as §1

[4] = compound: C#Cc1cccc(Nc2ncnc3cc(OC)c(OCCCCCCC(=O)NO)cc23)c1 [CUDC-101] + CS(=O)(=O)N1CCN(Cc2cc3nc(-c4cccc5[nH]ncc45)nc(N4CCOCC4)c3s2)CC1 [Pictilisib] (partner 1 µM)
Method in brief: as §1

Cell Line	relative viability ([1]; first compound 0.05 µM)	relative viability ([1]; first compound 0.1581 µM)	relative viability ([1]; first compound 0.5 µM)	relative viability ([2]; first compound 0.2 µM)	relative viability ([2]; first compound 0.6325 µM)	relative viability ([2]; first compound 2 µM)	relative viability ([3]; first compound 0.01 µM)	relative viability ([3]; first compound 0.03162 µM)	relative viability ([3]; first compound 0.1 µM)	relative viability ([3]; first compound 0.3162 µM)	relative viability ([3]; first compound 1 µM)	relative viability ([4]; first compound 0.01 µM)	relative viability ([4]; first compound 0.03162 µM)	relative viability ([4]; first compound 0.1 µM)	relative viability ([4]; first compound 0.3162 µM)	relative viability ([4]; first compound 1 µM)	relative viability ([1]; first compound 0.005 µM)	relative viability ([1]; first compound 0.01581 µM)
LK-2	0.216	0.209	0.238	0.698	0.698	0.451	1.08	0.959	1.09	1.05	0.647	0.593	0.481	0.497	0.59	0.312		
LOU-NH91	0.689	0.695	0.685	0.888		0.657	0.652	0.533	0.509	0.574	0.482	0.578	0.523	0.564	0.473	0.433	0.709	0.786
LU99A	0.599	0.599	0.51	0.283	0.266	0.24	0.584	0.603	0.518	0.433	0.263	0.323	0.299	0.33	0.253	0.148	0.457	0.686
LXF-289	0.831	0.869	0.798	0.931	1.08	0.487	0.991	1.08	0.994	1.07	0.815	0.758	0.806	0.806	0.728	0.51	0.761	0.798
NCI-H23	0.433	0.544	0.35	0.312	0.211	0.187	0.775	0.592	0.727	0.652	0.718	0.518	0.549	0.457	0.435	0.464		0.602
NCI-H322M	0.953	0.891	0.796	0.715	0.723	0.558	0.775	0.704	0.725	0.733	0.725	0.522	0.546	0.439	0.417	0.353	0.845	0.85
NCI-H358	0.533	0.621	0.609	0.637	0.579	0.275	1.21	0.871	0.926	0.71	0.415	0.354	0.37	0.349	0.397	0.258	0.678	0.539
NCI-H441	0.691	0.834	0.554	0.617	0.659	0.309	0.842	0.847	0.879	0.589	0.572	0.694	0.537	0.561	0.497	0.401		0.486
NCI-H460	0.71	0.873	0.902	0.537	0.484	0.633	0.478	0.42	0.589	0.443	0.465	0.375	0.358	0.315	0.453	0.287		0.908
NCI-H520	0.947	0.882	0.569	0.327	0.332	0.198	1.09		0.791	0.706	0.373	0.307		0.305	0.251	0.214	0.564	0.856
NCI-H596	0.939	1.16	0.952	0.66	0.595	0.537	0.463	0.395	0.481	0.465	0.512	0.403	0.382	0.422	0.384	0.68	0.864	1.03
NCI-H647	0.89	1.38	0.874	0.434	0.562	0.16	1.48	1.14	1.33	1.18	0.794	0.446	0.512	0.576	0.491	0.361		1
NCI-H650	0.568	0.672	0.704	0.423	0.376	0.289	1.19	1.06	1.29	1.17	0.885	0.856	0.888	1.05	0.705	0.51	0.484	0.67
NCI-H661	0.99	1.06	0.98	0.771	0.788	0.625	0.792	0.609	0.794	0.575	0.595	0.477	0.422	0.476	0.487	0.358	1.24	1.26
NCI-H727	0.739	0.836	0.529	0.612	0.601	0.679	0.59	0.478	0.698	0.595	0.295	0.412	0.355	0.283	0.286	0.27	0.793	0.803
NCI-H838	0.817	0.861	0.555	0.737	0.611	0.252	1.01	0.89	1.06	1.08	0.914	0.516	0.508	0.683	0.628	0.397	0.546	0.87
NCI-H1299	0.989	0.95	0.871	0.979	1.02	0.682	1.08	1	1.11	1.06	1.05	0.978	0.839	0.766	0.653	0.412	0.943	0.964
NCI-H1355	1.04	1.03	0.949	0.657	0.713	0.499	0.873	0.738	1.02	0.807	0.566	0.485	0.44	0.491	0.38	0.277	1.11	1.16
